In patent publication US9834571B2, “Compounds for inhibiting cell proliferation in EGFR-driven cancers” (ARIAD Pharmaceuticals, Inc., priority 2012, dated 2017):
Read-outs that look alike come from different tables or passages of the source.

Tests used:
[1] = target: human EGFR (native sequence) (Homo sapiens, UniProt P00533); assay: Kinase inhibitory activity against human EGFR (native sequence); assay type: biochemical; details: 10 μM ATP, read-out: IC50 for kinase inhibition, EGFR
Procedure: (§1) Kinase inhibitory activity of the compounds was measured against human EGFR (native sequence) and against EGFR bearing the L858R mution and the L858R/T790M double mutation (EGFR, L858R, and L858R/T790M, respectively in Table 1). Additional assays can be conducted with EGFR deletion mutants such as delE746-A750 with or without the additional T790M mutation. Assay conditions included 10 pt curves with 3 μM top concentration (singlicates) and 10 μM ATP.

[2] = target: EGFR L858R (Homo sapiens, UniProt P00533, L858R); assay: Kinase inhibitory activity against EGFR bearing the L858R mutation; assay type: biochemical; details: 10 μM ATP, read-out: IC50 for kinase inhibition, EGFR L858R
Chain of EGFR L858R (P00533 25-1210 L858R): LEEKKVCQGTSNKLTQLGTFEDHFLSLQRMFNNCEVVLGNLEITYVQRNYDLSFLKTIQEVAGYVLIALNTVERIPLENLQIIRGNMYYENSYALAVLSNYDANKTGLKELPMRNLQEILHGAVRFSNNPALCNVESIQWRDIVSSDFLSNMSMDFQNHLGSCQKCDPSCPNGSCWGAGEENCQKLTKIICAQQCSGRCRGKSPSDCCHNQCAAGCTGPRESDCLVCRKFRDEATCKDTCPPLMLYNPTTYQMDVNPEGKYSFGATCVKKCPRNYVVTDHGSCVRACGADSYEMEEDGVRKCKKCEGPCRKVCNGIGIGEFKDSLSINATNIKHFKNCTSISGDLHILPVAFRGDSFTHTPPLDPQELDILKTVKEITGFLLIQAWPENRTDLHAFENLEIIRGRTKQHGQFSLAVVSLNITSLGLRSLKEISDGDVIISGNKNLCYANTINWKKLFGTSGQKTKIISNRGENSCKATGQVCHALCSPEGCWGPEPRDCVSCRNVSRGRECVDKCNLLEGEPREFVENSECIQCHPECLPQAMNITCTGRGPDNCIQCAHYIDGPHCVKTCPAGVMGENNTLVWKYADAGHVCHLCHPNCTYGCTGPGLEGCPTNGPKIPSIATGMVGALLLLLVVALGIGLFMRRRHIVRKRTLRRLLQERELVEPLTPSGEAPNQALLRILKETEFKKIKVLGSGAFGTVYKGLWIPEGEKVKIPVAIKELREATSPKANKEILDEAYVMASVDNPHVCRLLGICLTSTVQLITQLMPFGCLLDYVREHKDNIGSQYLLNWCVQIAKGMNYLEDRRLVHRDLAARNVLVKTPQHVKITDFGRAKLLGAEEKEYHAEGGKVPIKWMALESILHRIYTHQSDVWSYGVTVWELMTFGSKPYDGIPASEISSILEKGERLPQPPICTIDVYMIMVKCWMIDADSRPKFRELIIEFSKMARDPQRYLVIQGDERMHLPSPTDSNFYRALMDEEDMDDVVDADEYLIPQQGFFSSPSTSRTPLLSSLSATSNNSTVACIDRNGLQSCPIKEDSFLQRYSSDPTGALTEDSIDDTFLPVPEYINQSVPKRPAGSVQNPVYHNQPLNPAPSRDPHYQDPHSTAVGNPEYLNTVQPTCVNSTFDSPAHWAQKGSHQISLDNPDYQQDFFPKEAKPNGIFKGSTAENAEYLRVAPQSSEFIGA
Procedure: as §1

[3] = target: EGFR L858R/T790M (Homo sapiens, UniProt P00533, L858R/T790M); assay: Kinase inhibitory activity against EGFR bearing the L858R/T790M double mutation; assay type: biochemical; details: 10 μM ATP, read-out: IC50 for kinase inhibition, EGFR L858R T790M
Procedure: as §1

[4] = target: T1, BaF3 cells expressing the target EGFR mutations (Homo sapiens, UniProt P00533, T790M, cells depend on it, form not given); assay: Antiproliferative activity (MTT) against BaF3 cells expressing the target EGFR mutations; assay type: cell-based; details: BAF3 EGFR DEL T790M PURO POOL cells, read-out: IC50, BAF3 EGFR DEL T790M PURO POOL
T1 construct: IC50, BAF3 EGFR DEL T790M PURO POOL; other: BAF3 EGFR DEL T790M PURO POOL cells, MTT; other: BAF3 EGFR DEL T790M PURO POOL cells; MTT
T1 sequence (P00533 with tags, fused parts or gaps DEL746-750/T790M, form open): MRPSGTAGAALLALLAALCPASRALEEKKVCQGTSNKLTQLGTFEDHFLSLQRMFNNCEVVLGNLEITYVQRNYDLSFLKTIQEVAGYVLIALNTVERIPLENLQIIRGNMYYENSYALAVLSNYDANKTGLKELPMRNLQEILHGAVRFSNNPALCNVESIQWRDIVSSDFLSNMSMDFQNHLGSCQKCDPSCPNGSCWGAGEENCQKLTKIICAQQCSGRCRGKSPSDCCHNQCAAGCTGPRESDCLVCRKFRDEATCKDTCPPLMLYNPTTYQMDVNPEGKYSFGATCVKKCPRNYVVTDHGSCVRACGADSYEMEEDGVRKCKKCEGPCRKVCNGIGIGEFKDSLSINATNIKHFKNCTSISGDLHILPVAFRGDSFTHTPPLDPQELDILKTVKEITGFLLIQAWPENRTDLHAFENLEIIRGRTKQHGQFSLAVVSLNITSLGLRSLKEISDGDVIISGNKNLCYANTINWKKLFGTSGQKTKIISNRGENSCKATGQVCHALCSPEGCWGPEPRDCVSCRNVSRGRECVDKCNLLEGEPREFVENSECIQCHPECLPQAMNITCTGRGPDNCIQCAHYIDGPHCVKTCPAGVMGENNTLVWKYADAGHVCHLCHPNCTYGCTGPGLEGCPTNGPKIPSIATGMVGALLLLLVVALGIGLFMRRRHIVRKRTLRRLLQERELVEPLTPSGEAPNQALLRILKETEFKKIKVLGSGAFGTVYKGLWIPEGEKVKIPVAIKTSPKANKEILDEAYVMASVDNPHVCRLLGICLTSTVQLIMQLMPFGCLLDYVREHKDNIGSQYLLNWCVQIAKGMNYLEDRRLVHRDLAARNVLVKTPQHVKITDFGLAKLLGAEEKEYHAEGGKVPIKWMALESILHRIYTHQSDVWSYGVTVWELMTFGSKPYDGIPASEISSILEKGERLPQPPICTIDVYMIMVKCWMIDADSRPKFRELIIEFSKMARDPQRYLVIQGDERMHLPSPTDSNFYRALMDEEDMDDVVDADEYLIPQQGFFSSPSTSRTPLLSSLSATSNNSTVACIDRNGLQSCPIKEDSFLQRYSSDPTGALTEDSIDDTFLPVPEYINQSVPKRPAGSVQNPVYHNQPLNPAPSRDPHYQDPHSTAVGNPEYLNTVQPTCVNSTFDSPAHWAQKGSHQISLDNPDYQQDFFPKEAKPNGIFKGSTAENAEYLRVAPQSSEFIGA
Procedure: (§2) We also assessed the antiproliferative activity of compounds of Formula (I) against BaF3 cells expressing the target EGFR mutations or control (i.e., cell lines expressing wildtype EGFR). Assays were conducted using MTT.

[5] = target: T2, BaF3 cells expressing the target EGFR mutations (Homo sapiens, UniProt P00533, T790M/L858R, cells depend on it); assay: as above; assay type: cell-based; details: BAF3 EGFR L858R-T790M PURO POOL cells, read-out: IC50, BAF3 EGFR L858R-T790M PURO POOL
T2 construct: IC50, BAF3 EGFR L858R-T790M PURO POOL; other: BAF3 EGFR L858R-T790M PURO POOL cells, MTT; IC50, BAF3 EGFR L858R-T790M PURO POOL; other: BAF3 EGFR L858R-T790M PURO POOL cells; MTT
T2 sequence (P00533 whole entry T790M/L858R): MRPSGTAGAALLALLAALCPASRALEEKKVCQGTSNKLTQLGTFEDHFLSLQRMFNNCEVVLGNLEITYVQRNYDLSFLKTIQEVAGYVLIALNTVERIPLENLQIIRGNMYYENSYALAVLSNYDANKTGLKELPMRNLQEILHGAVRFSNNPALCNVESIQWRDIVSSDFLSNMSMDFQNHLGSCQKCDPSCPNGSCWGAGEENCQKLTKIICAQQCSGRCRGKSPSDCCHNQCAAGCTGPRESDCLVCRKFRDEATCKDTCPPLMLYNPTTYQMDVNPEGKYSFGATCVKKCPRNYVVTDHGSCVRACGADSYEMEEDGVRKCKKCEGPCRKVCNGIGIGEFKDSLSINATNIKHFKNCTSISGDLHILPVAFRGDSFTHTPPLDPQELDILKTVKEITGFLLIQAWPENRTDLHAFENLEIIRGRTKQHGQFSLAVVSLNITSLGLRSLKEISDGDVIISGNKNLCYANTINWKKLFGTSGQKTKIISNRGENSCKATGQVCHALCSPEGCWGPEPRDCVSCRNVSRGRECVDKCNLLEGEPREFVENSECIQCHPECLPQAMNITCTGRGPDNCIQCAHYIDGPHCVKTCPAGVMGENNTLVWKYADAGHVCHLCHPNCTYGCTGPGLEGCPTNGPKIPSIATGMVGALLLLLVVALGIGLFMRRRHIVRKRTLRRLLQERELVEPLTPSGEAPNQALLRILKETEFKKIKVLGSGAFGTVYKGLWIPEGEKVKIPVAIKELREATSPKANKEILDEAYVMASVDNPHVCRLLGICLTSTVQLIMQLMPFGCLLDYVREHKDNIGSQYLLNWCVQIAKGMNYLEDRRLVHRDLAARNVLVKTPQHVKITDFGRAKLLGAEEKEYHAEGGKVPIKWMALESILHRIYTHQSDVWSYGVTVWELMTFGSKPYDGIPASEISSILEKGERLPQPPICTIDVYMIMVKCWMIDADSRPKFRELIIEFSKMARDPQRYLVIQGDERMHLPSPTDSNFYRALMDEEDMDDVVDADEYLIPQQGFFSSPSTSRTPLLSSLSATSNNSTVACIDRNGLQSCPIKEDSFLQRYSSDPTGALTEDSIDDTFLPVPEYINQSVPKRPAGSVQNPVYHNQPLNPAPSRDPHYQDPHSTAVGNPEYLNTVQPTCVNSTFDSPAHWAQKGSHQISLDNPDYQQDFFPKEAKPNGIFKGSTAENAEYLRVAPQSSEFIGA
Procedure: as §2

[6] = system: BaF3 cells expressing wildtype EGFR; assay: Antiproliferative activity (MTT) against control BaF3 cells expressing wildtype EGFR; assay type: cell-based
Procedure: as §2

[7] = EGFR L858R/T790M double mutation
[8] = Mus musculus, BAF3 PARENTAL cells (control)
[9] = 10 pt curves, 3 μM top concentration
[10] = Mus musculus, BAF3 parental cells

Chain of human EGFR (native sequence) (P00533 25-1210): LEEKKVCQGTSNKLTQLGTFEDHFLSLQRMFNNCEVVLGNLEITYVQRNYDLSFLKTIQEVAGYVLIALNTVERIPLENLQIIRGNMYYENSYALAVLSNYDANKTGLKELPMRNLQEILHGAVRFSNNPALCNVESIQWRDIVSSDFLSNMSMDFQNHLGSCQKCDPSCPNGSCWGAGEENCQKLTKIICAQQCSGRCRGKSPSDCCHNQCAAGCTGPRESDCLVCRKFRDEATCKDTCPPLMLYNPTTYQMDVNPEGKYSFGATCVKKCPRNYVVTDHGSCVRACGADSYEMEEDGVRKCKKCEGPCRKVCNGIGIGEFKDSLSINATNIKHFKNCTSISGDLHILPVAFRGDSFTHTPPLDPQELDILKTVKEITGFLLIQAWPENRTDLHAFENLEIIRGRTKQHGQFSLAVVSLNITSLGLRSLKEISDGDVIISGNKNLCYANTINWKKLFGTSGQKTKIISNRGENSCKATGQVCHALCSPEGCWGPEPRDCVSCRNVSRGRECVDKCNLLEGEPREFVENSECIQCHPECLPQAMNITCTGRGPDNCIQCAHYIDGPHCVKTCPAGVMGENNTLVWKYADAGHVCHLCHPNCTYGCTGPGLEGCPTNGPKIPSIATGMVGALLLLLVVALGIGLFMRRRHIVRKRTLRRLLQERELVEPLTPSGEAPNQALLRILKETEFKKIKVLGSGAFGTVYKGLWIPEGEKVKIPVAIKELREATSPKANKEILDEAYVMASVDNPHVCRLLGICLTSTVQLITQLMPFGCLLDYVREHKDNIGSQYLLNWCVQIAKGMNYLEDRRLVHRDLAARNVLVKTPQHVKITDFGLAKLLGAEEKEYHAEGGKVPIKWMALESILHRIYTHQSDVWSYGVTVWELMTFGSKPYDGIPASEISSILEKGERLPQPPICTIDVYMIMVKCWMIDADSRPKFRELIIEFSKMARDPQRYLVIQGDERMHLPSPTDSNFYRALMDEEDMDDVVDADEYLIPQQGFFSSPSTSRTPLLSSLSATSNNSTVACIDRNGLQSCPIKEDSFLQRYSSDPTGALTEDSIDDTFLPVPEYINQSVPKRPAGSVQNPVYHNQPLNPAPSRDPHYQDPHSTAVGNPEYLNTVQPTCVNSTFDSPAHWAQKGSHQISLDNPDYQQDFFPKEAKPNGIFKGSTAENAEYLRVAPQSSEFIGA

Row | SMILES | IC50 ([1]; human EGFR native sequence) | IC50 ([2]; EGFR L858R) | IC50 [3, 7] | GI50 [4] | GI50 [5] | IC50 [6, 8] | IC50 [1, 9] | IC50 [2, 9] | IC50 [3, 9] | IC50 [6, 10] | IC50 ([6]; BAF3 parental cells)
1 | C=C(CN1CCS(=O)(=O)CC1)C(=O)Nc1ccc(OC)c(Nc2ncc(Cl)c(Nc3ccccc3P(C)(C)=O)n2)c1 [Example 46, N-(3-((5-chloro-4-((2-(dimethylphosphoryl)phenyl)amino)pyrimidin-2-yl)amino)-4-methoxyphenyl)-2-((1,1-dioxidothiomorpholino)methyl)acrylamide] | ≥ 250 nM | 50 to 100 nM | < 50 nM | ≥ 250 nM | ≥ 250 nM | ≥ 250 nM | – | – | – | – | –
2 | C=C(CN1CCC(N2CCN(C)CC2)CC1)C(=O)Nc1ccc(OC)c(Nc2ncc(Cl)c(Nc3ccccc3P(C)(C)=O)n2)c1 [Example 45, N-(3-((5-chloro-4-((2-(dimethylphosphoryl)phenyl)amino)pyrimidin-2-yl)amino)-4-methoxyphenyl)-2-((4-(4-methylpiperazin-1-yl)piperidin-1-yl)methyl)acrylamide] | < 50 nM | < 50 nM | < 50 nM | < 50 nM | < 50 nM | ≥ 250 nM | – | – | – | – | –
3 | COc1cc(F)c(NC(=O)/C=C/Cl)cc1Nc1ncc(Cl)c(Nc2ccccc2P(C)(C)=O)n1 [Example 85, (E)-3-chloro-N-(5-((5-chloro-4-((2-(dimethylphosphoryl)phenyl)amino)pyrimidin-2-yl)amino)-2-fluoro-4-methoxyphenyl)acrylamide] | < 50 nM | < 50 nM | < 50 nM | < 50 nM | < 50 nM | ≥ 250 nM | – | – | – | – | –
4 | C=C(C)C(=O)Nc1cc(Nc2ncc(Cl)c(Nc3ccccc3P(C)(C)=O)n2)c(OC)cc1N1CC[C@@H](N(C)C)C1 (racemic) [Example 113, rac-(R)-N-(5-((5-chloro-4-((2-(dimethylphosphoryl)phenyl)amino)pyrimidin-2-yl)amino)-2-(3-(dimethylamino)pyrrolidin-1-yl)-4-methoxyphenyl)methacrylamide] | – | – | – | < 50 nM | < 50 nM | – | 101 to 250 nM | < 50 nM | < 50 nM | ≥ 250 nM | –
5 | C=CC(=O)Nc1ccc(F)c(Nc2ncc(Cl)c(Nc3ccccc3P(C)(C)=O)n2)c1 [Example 54, N-(3-((5-chloro-4-((2-(dimethylphosphoryl)phenyl)amino)pyrimidin-2-yl)amino)-4-fluorophenyl)acrylamide] | – | – | – | < 50 nM | < 50 nM | ≥ 250 nM | – | – | – | – | –
6 | C=CC(=O)Nc1cc(Nc2ncc(Cl)c(Nc3ccccc3P(C)(C)=O)n2)c(OC)cc1N1CCCN(C)CC1 [Example 25, N-(5-((5-chloro-4-((2-(dimethylphosphoryl)phenyl)amino)pyrimidin-2-yl)amino)-4-methoxy-2-(4-methyl-1,4-diazepan-1-yl)phenyl)acrylamide] | < 50 nM | < 50 nM | < 50 nM | < 50 nM | < 50 nM | ≥ 250 nM | – | – | – | – | –
7 | COc1cc(N2CCOCC2)c(NC(=O)C#CCCN(C)C)cc1Nc1ncc(Cl)c(Nc2ccccc2P(C)(C)=O)n1 [Example 114, N-(5-((5-chloro-4-((2-(dimethylphosphoryl)phenyl)amino)pyrimidin-2-yl)amino)-4-methoxy-2-morpholinophenyl)-5-(dimethylamino)pent-2-ynamide] | – | – | – | < 50 nM | < 50 nM | – | < 50 nM | < 50 nM | < 50 nM | ≥ 250 nM | –
8 | C=CC(=O)Nc1cc(Nc2ncc(Cl)c(Nc3ccccc3P(C)(C)=O)n2)c(Cl)cc1OC(COC)CN(C)C (stereo not shown) [Example 146, N-(4-chloro-5-((5-chloro-4-((2-(dimethylphosphoryl)phenyl)amino)pyrimidin-2-yl)amino)-2-((1-(dimethylamino)-3-methoxypropan-2-yl)oxy)phenyl)acrylamide] | – | – | – | < 50 nM | – | – | < 50 nM | – | – | – | ≥ 250 nM
9 | C=CC(=O)Nc1cc(Nc2ncc(Cl)c(Nc3ccccc3P(C)(C)=O)n2)c(OC)cc1OCCN1CCN(C)CC1 [Example 2, N-(5-((5-chloro-4-((2-(dimethylphosphoryl)phenyl)amino)pyrimidin-2-yl)amino)-4-methoxy-2-(2-(4-methylpiperazin-1-yl)ethoxy)phenyl)acrylamide] | 101 to 250 nM | < 50 nM | < 50 nM | ≥ 250 nM | – | ≥ 250 nM | – | – | – | – | –
10 | C=CC(=O)N1CCc2cc(OC)c(Nc3ncc(Cl)c(Nc4ccccc4P(C)(C)=O)n3)cc21 [Example 127, 1-(6-((5-chloro-4-((2-(dimethylphosphoryl)phenyl)amino)pyrimidin-2-yl)amino)-5-methoxyindolin-1-yl)prop-2-en-1-one] | – | – | – | 101 to 250 nM | ≥ 250 nM | – | – | – | – | ≥ 250 nM | –
11 | C=CC(=O)Nc1cc(Nc2ncc(Cl)c(Nc3ccccc3P(C)(C)=O)n2)c(OC)cc1OC1CN(C)C1 [Example 17, N-(5-((5-chloro-4-((2-(dimethylphosphoryl)phenyl)amino)pyrimidin-2-yl)amino)-4-methoxy-2-((1-methylazetidin-3-yl)oxy)phenyl)acrylamide] | – | – | – | 50 to 100 nM | 101 to 250 nM | ≥ 250 nM | – | – | – | – | –
12 | C=CC(=O)Nc1cc(Nc2ncc(Cl)c(Nc3ccccc3P(C)(C)=O)n2)c(OC)cc1OCC1CCCN1C (stereo not shown) [Example 18, N-(5-((5-chloro-4-((2-(dimethylphosphoryl)phenyl)amino)pyrimidin-2-yl)amino)-4-methoxy-2-((1-methylpyrrolidin-2-yl)methoxy)phenyl)acrylamide] | – | – | – | < 50 nM | < 50 nM | ≥ 250 nM | – | – | – | – | –
13 | C=CC(=O)Nc1cc(Nc2ncc(Cl)c(Nc3ccccc3P(C)(C)=O)n2)c(C)cc1OC(COC)CN(C)C (stereo not shown) [Example 144, N-(5-((5-chloro-4-((2-(dimethylphosphoryl)phenyl)amino)pyrimidin-2-yl)amino)-2-((1-(dimethylamino)-3-methoxypropan-2-yl)oxy)-4-methylphenyl)acrylamide] | – | – | – | < 50 nM | – | – | < 50 nM | – | – | – | ≥ 250 nM
14 | C=CC(=O)Nc1cc(Cc2ncc(Cl)c(Nc3ccccc3P(C)(C)=O)n2)c(OC)cc1C#CCN(C)C(C)(C)C [Example 177, N-(2-(3-(tert-butyl(methyl)amino)prop-1-yn-1-yl)-5-((5-chloro-4-((2-(dimethylphosphoryl)phenyl)amino)pyrimidin-2-yl)methyl)-4-methoxyphenyl)acrylamide] | – | – | – | – | – | – | < 50 nM | < 50 nM | < 50 nM | ≥ 250 nM | –
15 | C=CC(=O)Nc1cc(Cc2ncc(Cl)c(Nc3ccccc3P(C)(C)=O)n2)c(OC)cc1C#CCN1CCC(C)CC1 [Example 176, N-(5-((5-chloro-4-((2-(dimethylphosphoryl)phenyl)amino)pyrimidin-2-yl)methyl)-4-methoxy-2-(3-(4-methylpiperidin-1-yl)prop-1-yn-1-yl)phenyl)acrylamide] | – | – | – | – | – | – | < 50 nM | < 50 nM | < 50 nM | ≥ 250 nM | –
16 | C=CC(=O)Nc1cc(Nc2ncc(Cl)c(Nc3ccccc3P(C)(C)=O)n2)c(OC)cc1OCC(CO)N(C)C (stereo not shown) [Example 66, N-(5-((5-chloro-4-((2-(dimethylphosphoryl)phenyl)amino)pyrimidin-2-yl)amino)-2-(2-(dimethylamino)-3-hydroxypropoxy)-4-methoxyphenyl)acrylamide] | – | – | – | 101 to 250 nM | ≥ 250 nM | ≥ 250 nM | – | – | – | – | –
